Columns and labels:
[1] = system: mice; assay: Acute toxicity study; format: in vivo, albino mice; conditions: i.p., doses 25 to 1000 mg/kg
Protocol: In our study, experimental animals (albino mice male/female weighing 18-32 gm) were obtained from the National Institute of Health (NIH), Islamabad, Pakistan. These animals were provided adequate food, water, and light (ad libitum). Appropriate conditions were maintained as per laboratory specifications, including a temperature of 22°C a dark and light cycle of 12 hours each. As per the Animals Scientific Procedure Act 1986, UK, the in-vivo studies were performed on experimental animals from 9:00 am to 4:00 pm. The departmental committee of research ethics of the Pharmacy Department, University of Malakand, approved the study protocol via reference no DREC/20210622/50.
Acute toxicity was carried out for the safety profile assessment of our test compounds. For this purpose, the mice were grouped into six different groups (n = 6). The test compound was given to each mouse at different doses (25 to 1000 mg/kg) via the intraperitoneal (i.p) route. Changes in behaviour such as convulsions, hyperactivity, writhing, sedation, righting reflex, aggressiveness, grooming, ataxia, motor activity (increased or decreased), respiratory arrest, and mortality were observed after the administration of sample solution for the first two hours and then again for 24 hours.

[2] = DPPH antioxidant assay; format: physicochemical; conditions: for % Inhibition (DPPH free radicals): mean ± SEM
Protocol: To evaluate the in-vitro antioxidant potential of the synthesized derivatives, a previously reported 1,1 Diphenyl, 2 Picrylhydrazyl (DPPH) assay was utilized. The DPPH solution was prepared by dissolving twenty-four mg DPPH in methanol (100 ml). Test sample solutions in various concentrations (62.50 to 1000 μg/mL) were also prepared. From each dilution, 1 ml sample solution was taken to which 1 ml solution of DPPH was added. The solution mixture was incubated at 23°C for 30 minutes in the dark and then subjected to a UV-visible spectrophotometer to note the absorbance at 517 nm. The absorbance values of all samples were taken in triplicate. Ascorbic acid served as positive control, while negative control only contained a solution of DPPH having no test samples. The % free radical scavenging potential of our compounds was determined by the given formula.
% free radical scavenging activity = [drawing 2] x100
X is the control absorbance, whereas X1 is the absorbance of the test sample.

[3] = system: scopolamine-induced amnesic mice; assay: Elevated Plus Maze (EPM) test in scopolamine-induced amnesic animals; format: in vivo, albino mice; conditions: scopolamine 1 mg/kg amnesic mice, i.p., AN-1 10 mg/kg, progesterone 10 mg/kg, galantamine 8 mg/kg
Protocol: (§1) The mice were divided into the following five groups, and each group had six animals. The standard drug and test samples were carefully administered to the mice via the intraperitoneal route.
(§2) Group IV (Progesterone treated group) = Animals treated with 10 mg/kg progesterone and scopolamine 1 mg/kg.
(§3) Group V (Test compound group) = Animals received 10 mg/kg progesterone derivative (AN-1) and 1 mg/kg scopolamine.
The EPM behavioral test was performed to assess the learning abilities and long-term spatial memory of the experimental animals. The EPM apparatus has the appearance of a plus sign which was 50 cm elevated from the ground. The apparatus has two open arms (50 cm long and 10 cm wide), and two closed arms having dimensions of 20, 50, and 10 cm in height, length, and width, respectively. The open and closed arms were joined with a 10 × 10 central square.
After 30 minutes of the intraperitoneal drug administration on the seventh day of treatment, mice of each group were placed over the open arm end of the EPM apparatus in such a way that their faces were away from the midpoint of the apparatus. Transfer latency (TL) is the time a mouse takes to enter the closed arm entirely with all its legs from the open arm of the apparatus. The time of initial transfer latency (ITL) was observed, and then the animals were allowed freely for 1.5 minutes to search the EPM apparatus.
After twenty-four hours of the training period, test trials were conducted to determine the retention of tasks that were learnt during training. Retention transfer latency (RTL) was measured by placing the experimental mice at the open end of the apparatus, ensuring that they faced away from its midpoint. The mouse was allowed to enter the closed arm entirely with all its legs. A decline in TL compared to ITL indicated an improvement in memory.

[4] = system: scopolamine-induced amnesic mice; assay: Open field test (OFT) in scopolamine-induced amnesic animals; format: in vivo, albino mice; conditions: i.p., AN-1 10 mg/kg, progesterone 10 mg/kg, galantamine 8 mg/kg
Protocol: as §1, §2, §3
Open field behavioral test was carried out for the assessment of locomotor activities like the number of line crossing. The apparatus was made from plywood having 81×81×28.5 cm dimensions. Sixteen squares (20×20 cm) were made on the base of the apparatus by drawing four horizontal and four vertical lines. […] Furthermore, exploration time spent by mice in central and peripheral areas of the apparatus was also recorded by allowing the mice for 30 minutes to explore the apparatus.

[5] = target: T1, BChE (source equine serum) (Equus caballus, UniProt P81908); assay: biochemical
T1 construct: from tissue; host or cells: equine serum
T1 sequence (P81908 whole entry): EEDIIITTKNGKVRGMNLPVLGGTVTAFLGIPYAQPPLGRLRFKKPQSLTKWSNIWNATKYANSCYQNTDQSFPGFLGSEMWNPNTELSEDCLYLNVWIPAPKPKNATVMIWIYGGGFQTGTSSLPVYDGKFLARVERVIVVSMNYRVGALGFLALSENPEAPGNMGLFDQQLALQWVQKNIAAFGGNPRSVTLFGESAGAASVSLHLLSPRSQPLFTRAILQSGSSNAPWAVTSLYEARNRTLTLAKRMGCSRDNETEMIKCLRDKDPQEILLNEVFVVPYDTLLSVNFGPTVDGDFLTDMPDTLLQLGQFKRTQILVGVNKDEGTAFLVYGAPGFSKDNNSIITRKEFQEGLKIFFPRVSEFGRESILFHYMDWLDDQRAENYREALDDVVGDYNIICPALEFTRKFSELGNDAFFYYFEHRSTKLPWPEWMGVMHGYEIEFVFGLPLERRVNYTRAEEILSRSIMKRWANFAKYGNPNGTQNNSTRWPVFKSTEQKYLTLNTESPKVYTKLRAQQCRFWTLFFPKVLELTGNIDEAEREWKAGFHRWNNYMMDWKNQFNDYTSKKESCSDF
Protocol: The cholinesterase inhibitory potentials of our synthesized compounds were evaluated against cholinesterase enzymes (AChE/BChE). The AChE (source Electric eel) and BChE (source equine serum) were used in the study following previously published Ellman's assay. The assay basic principle involves the hydrolytic breakdown of acetylthiocholine iodide (ATChI) by AChE and butyryl thiocholine iodide (BTChI) by BChE enzymes, leading to the formation of an intermediate compound which is subsequently complexed with 5,5-dithio bis nitrobenzoic acid (DTNB) to form a UV-detectable compound. The yellowish color product indicates the hydrolysis of ATChI and BTChI substrates by respective enzymes, which were analyzed at 412 nm using a UV-visible spectrophotometer. […] A test sample of 1000 µl was taken in a cuvette, to which enzyme solution (50 µl) and DTNB reagent of 50 µL were added. The AChE (0.03 U/ml) and BChE (0.01 U/ml) solutions were prepared in 0.1 M phosphate buffer having pH 8.0. The ATChI and BTChI substrate solutions (0.0005 M) and 0.0002273 M solution of DTNB were prepared using distilled water and stored at 8°C before further use. For 15 minutes, the solution mixture was incubated at 30 °C, after which a solution of the substrate (50 µl) was added and then subjected to spectroscopic analysis. Using a double beam spectrophotometer, the sample absorbance was measured for 4 minutes at 412 nm beside the time of reaction. […] All values were taken in triplicate under the same conditions.
Enzymatic activity percentage=V/Vmaxx100
V is the reaction rate in the inhibitor's presence, whereas Vmax is the reaction rate in the absence of the inhibitor.

With `COc1ccc(C/N=C(/C)[C@H]2CC[C@H]3[C@@H]4CCC5=CC(=O)CC[C@]5(C)[C@H]4CC[C@]23C)cc1` [AN1, (8S,9S,10R,13S,14S)-17-((Z)-1-((4-methoxybenzyl)imino)ethyl)-10,13-dimethyl-1,2,6,7,8,9,10,11,12,13,14,15,16,17-tetradecahydro-3H-cyc-lopenta[a]phenanthren-3-one] the “toxic dose (mortality observed)” value [1] was ≥ 1000 mg/kg, the “dose safe, without toxic effects, mortality or unusual behavioral response” value ([1]; observed 2 h and 24 h) was ≤ 500 mg/kg and the IC50 [2] was 57.2 µM. For the same compound, the “% Inhibition (DPPH free radicals)” value ([2]; 62.5 µg/ml) was 56.46 ± 1.12%, the “% Inhibition (DPPH free radicals)” value ([2]; 125 µg/ml) was 67.64 ± 3.04% and the “% Inhibition (DPPH free radicals)” value ([2]; 250 µg/ml) was 70.00 ± 3.95%. For the same compound, the “% Inhibition (DPPH free radicals)” value ([2]; 500 µg/ml) was 76.15 ± 2.31%, the “% Inhibition (DPPH free radicals)” value ([2]; 1000 µg/ml) was 83.37 ± 2.03% and the “retention transfer latency (RTL)” value ([3]; 24 h after training, disease group 67 sec) was 45.33 s. For the same compound, the “initial transfer latency (ITL)” value ([3]; disease group 73 sec) was 50.16 s, the “number of lines crossed” value ([4]; 5 min, scopolamine 1 mg/kg amnesic mice, disease group 26.33) was 43.66 and the “time spent in the central area” value ([4]; 30 min exploration, scopolamine 1 mg/kg amnesic mice, disease group 4.66) was 10.33 mint. For the same compound, the “time spent in the peripheral area” value ([4]; versus scopolamine/disease group) was “significantly (p<0.01) less time in the peripheral area”, the IC50 [5] was 43.3 µM and the inhibition at 62.5 µg/mL ([5]; read-out: % BChE Inhibition) was 61.5%. For the same compound, the inhibition at 125 µg/mL ([5]; read-out: % BChE Inhibition) was 68.3%, the inhibition at 250 µg/mL ([5]; read-out: % BChE Inhibition) was 71.9% and the inhibition at 500 µg/mL ([5]; read-out: % BChE Inhibition) was 80.4%. The inhibition at 1000 µg/mL ([5]; read-out: % BChE Inhibition) was 86.8 ± 1.24%.

Reference: paper PMC12645137 (Current Neuropharmacology, 2025)
